From patent US11952364B2, “TRK inhibitors useful as anticancer drugs” (TYLIGAND BIOSCIENCE (SHANGHAI) LIMITED, priority 2018, dated 2024)

Test system: Ba/F3 LMNA-NTRK1-G595R cells
Experiment: Proliferation of Ba/F3 LMNA-NTRK1-G595R cells (CellTiter-Glo)
Assay type: cell-based
Conditions: Mus musculus, BaF3; Table 5; 72 hours
Source text: Ba/F3 LMNA-NTRK1-G595R is a stable transgenic cell line constructed by KYinno Biotechnology Co., Ltd. on mouse primary B cell Ba/F3 wherein NTRK1 is highly expressed with a mutation of G at position 595 to R, and fused with LMNA to form LMNA-NTRK1. • [Test method]: Promega's CellTiter-Glo® Luminescent Cell Viability Assay kit was used to evaluate the inhibitory activity of the compounds on the proliferation of Ba/F3 LMNA-NTRK1-G595R cells. • [Instrument]: Spectramax M3 multifunctional microplate reader from Molecular Devices. • [Test materials]: Ba/F3 LMNA-NTRK1-G595R cell line (constructed by KYinno Biotechnology Co., Ltd. (Beijing)), 96-well transparent flat-bottomed black-walled cell culture plate (Corning, cat #3603), RPMI-1640 media (GE, cat #SH30027.01), fetal bovine serum FBS (Thermo Fisher, cat #10099-141), CellTiter-Glo® Luminescent Cell Viability Assay kit (Promega, cat #G7572), PBS (Solarbio, cat #P1020), DMSO (Sigma, cat #D2650). • [Experimental procedure]: When resuscitating Ba/F3 LMNA-NTRK1-G595R cells, the freezing tube was quickly shaken in a 37° C. water bath to melt within 1 minute. The thawed cell suspension was mixed uniformly with RPMI1640 medium containing 10% FBS, centrifuged at 1000 rpm for 5 minutes, and the supernatant discarded. 5 mL of complete medium (RPMI1640 medium with 10% FBS) was taken to resuspend the cell pellets, charged into a cell culture flask with a bottom area of 25 cm^2, and incubated in a cell incubator at 37° C., 95% humidity and 5% CO2. Cells were allowed to passage when the number of cells reached about 10^6 cells/mL. For cell passage, the old cell suspension was directly pipetted evenly, 1/5 of the cell suspension was kept, 4 mL of new complete medium was added, after pipetting evenly, the cell flask was placed in the cell incubator for further culturing. Cell plating was performed when the number of cells reached about 10^6 cells/mL again. For cell plating, 1/5 of the cell suspension was kept for further culturing as in the cell passage method, and the remaining 4/5 of the cell suspension was placed in a 15 mL centrifuge tube, detected for cell viability by Trypan blue exclusion method to ensure that cell viability was above 90%. A cell suspension with a density of 5.56×10^4 viable cells/mL was prepared with complete medium, and 90 μL of such cell suspension was added to a 96-well cell culture plate to obtain the cell density of 5000 viable cells/mL in the cell culture plate. A control group containing no cells, no compound and only complete medium (i.e. culture medium control) and a control group containing no compound but containing cells (i.e. cell control) were set. The cell plate was placed in a cell incubator overnight. The 10 mM compound stock solution in DMSO was first serially diluted with DMSO at a dilution factor of 3.16 times, to obtain 9 concentrations, and the 10th concentration was set as DMSO control without compound. Then, PBS was used to dilute the DMSO solutions of compounds of different concentrations, at a dilution factor of 100 times, so that the DMSO concentration in the compound solution of each concentration was 1%. Finally, 10 μL of each of the above solutions was added to the corresponding cell culture plate, so that the initial compound concentration was 10 μM, with the remaining concentrations being successively diluted at a dilution factor of 3.16 times, and the DMSO content in the cell culture plate was 0.1%. The cell plate was placed in a cell incubator and cultured for 72 hours. For endpoint detection, the CellTiter-Glo reagent was melted, and the cell plate was moved to room temperature to equilibrate for 30 minutes, added with 100 μL of CellTiter-Glo for each well, and shaken on an orbital shaker for 5 minutes to fully lyse the cells. The plate was kept at room temperature for 20 minutes to stabilize the luminescence signal, and the luminescence value of each well was scanned with a multi-functional microplate reader at full wavelength. • [Test samples] […]

Row | SMILES | IC50
1 | Cn1ncc2cc(Oc3ccc(NC(=O)c4ccc(C(F)(F)F)n(-c5ccc(F)cc5)c4=O)cc3F)c(-c3cn[nH]c3)cc21 [Example 1, N-(3-fluoro-4-(1-methyl-6-(1H-pyrazol-4-yl)-1H-indazol-5-yloxy)phenyl)-1-(4-fluorophenyl)-6-trifluoromethyl-2-oxo-1,2-dihydmpyridine-3-carboxamide monomethanesulfonate] | 1.44 µM
2 | Cn1ncc2cc(Oc3ccc(NC(=O)c4ccc(C5CC5)n(-c5ccc(F)cc5)c4=O)cc3F)c(-c3cn[nH]c3)cc21 [Example 2, N-(3-fluoro-4-(1-methyl-6-(1H-pyrazol-4-yl)-1H-indazol-5-yloxy)phenyl)-1-(4-fluorophenyl)-6-cyclopropyl-2-oxo-1,2-dihydmpyridine-3-carboxamide] | 0.752 µM
3 | CCn1ncc2cc(Oc3ccc(NC(=O)c4ccc(C)n(-c5ccc(F)cc5)c4=O)cc3F)c(-c3cn[nH]c3)cc21 [Example 3, N-(3-fluoro-4-(1-ethyl-6-(1H-pyrazol-4-yl)-1H-indazol-5-yloxy)phenyl)-1-(4-fluorophenyl)-6-methyl-2-oxo-1,2-dihydmpyridine-3-carboxamide] | 3.15 µM
4 | Cc1ccc(C(=O)Nc2ccc(Oc3cc4cnn(C(C)C)c4cc3-c3cn[nH]c3)c(F)c2)c(=O)n1-c1ccc(F)cc1 [Example 4, N-(3-fluoro-4-(1-isopropyl-6-(1H-pyrazol-4-yl)-1H-indazol-5-yloxy)phenyl)-1-(4-fluorophenyl)-6-methyl-2-oxo-1,2-dihydmpyridine-3-carboxamide] | 4.65 µM
5 | CCc1ccc(C(=O)Nc2ccc(Oc3cc4cnn(C)c4cc3-c3cn[nH]c3)c(F)c2)c(=O)n1-c1ccc(F)cc1 [Example 5, N-(3-fluoro-4-(1-methyl-6-(1H-pyrazol-4-yl)-1H-indazol-5-yloxy)phenyl)-1-(4-fluorophenyl)-6-ethyl-2-oxo-1,2-dihydropyridine-3-carboxamide] | 0.799 µM
6 | CC(C)c1ccc(C(=O)Nc2ccc(Oc3cc4cnn(C)c4cc3-c3cn[nH]c3)c(F)c2)c(=O)n1-c1ccc(F)cc1 [Example 6, N-(3-fluoro-4-(1-methyl-6-(1H-pyrazol-4-yl)-1H-indazol-5-yloxy)phenyl)-1-(4-fluorophenyl)-6-isopropyl-2-oxo-1,2-dihydropyridine-3-carboxamide] | 0.747 µM
7 | O=C(Nc1cnn2ccc(N3CCC[C@@H]3c3cc(F)ccc3F)nc12)N1CC[C@H](O)C1 [LOXO-101, Larotrectinib, reference compound] | 3.66 µM
8 | Cc1ccc(C(=O)Nc2ccc(Oc3cc4cnn(C)c4cc3-c3cn[nH]c3)c(F)c2)c(=O)n1-c1ccc(F)cc1 [Merestinib, reference compound] | 1.01 µM
